# Source: patent US20230355581A1, “METHODS OF TREATMENT FOR MELANOMA” (THE BOARD OF REGENTS OF THE UNVERSITY OF TEXAS SYSTEM, priority 2020, published 2023)
# “Also recorded” adds a separate entry of the source.
# Legend:
# B16-F10 cells (BRAF-WT) = test: B16-F10 intradermal tumor model in immunocompetent mice; assay type: in vivo, WT C57BL/6 mice; settings: for tumor growth rate between day 7 and 11 (mean tumor burden): 4 consecutive days from day 7, 0 mg/kg group 7.92
# Description: WT C57BL/6 mice were implanted with 300,000 B16-F10 cells intradermally. The animals were regrouped to normalize the tumor volume. Animals were administered vehicle control (DMSO in PBS, 0 mg/kg SU11652) or increasing doses of SU11652 (10-20-40 mg/kg) orally for 4 consecutive days starting day 7, when the tumors are palpable. The tumor dimensions were measured by caliper (in mm) and the tumor volumes are calculated as follows: tumor volume=(short side^2×long side)/2 (in mm^3). […] Tumors grew approximately 7.92 times between day 7 and 11 in 0 mg/kg group, however the presence of SU11652 decreased the tumor growth rate to 3.8 to 2.35 (10 mg/kg to 40 mg/kg).
# The experiment was terminated at day 20 since some animals had tumors large tumors in 0 mg/kg group and were required to be euthanized.
# Higher doses of SU11652 lead to more tumor control.
# murine splenocytes = test: Splenocyte viability by trypan blue staining; assay type: cell-based; settings: anti-CD3, anti-CD28 stimulated, 2 and 3 days, all doses
# Excerpt: Murine splenocytes were stimulated with anti-CD3 and anti-CD28 in addition to the indicated SU11652 doses for 2 and 3 days. At indicated timepoints, splenocytes were counted and cell death was quantified by trypan blue staining using automated cell counter. Error bars represent standard error of means for N=3 mice per timepoint.
# Murine splenocytes were stimulated with anti-CD3, anti-CD28, and murine recombinant IL-2 in addition to the indicated SU11652 doses for 2 and 3 days (FIG. 4). At the indicated timepoints, splenocytes were counted and cell death was quantified by trypan blue staining using an automated cell counter. Error bars represent the standard error of the mean (SEM) for N=3 mice per timepoint. VC=vehicle control.
# A375 cells = test: 2D dose response of RMIC-resistant BRAF V600E melanoma cells; assay type: cell-based; settings: 2D culture
# Excerpt: Two new cell lines were used to shed insight into the relationship between RAC1 signaling and SU11652 activity. The first cell line used was IGR1 which is RAC1^P29S. […] A375 is a classical melanoma cell line that is RAC1^WT and BRAF^V600E, which we had already tested SU11652. The second new cell line was a knock-in RAC1P29S variant of A375 which allows direct comparisons between RAC1^WT and RAC1P29s melanoma.
# [1] = tested on: A375 cells (BRAF V600E mutant melanoma); test: 3D collagen culture viability dose response, A375; assay type: cell-based; settings: A375, 3D collagen matrix, 72 h
# Description: Collagen was brought to room temperature. Cells were trypsinized, harvested and counted. […] Collagen was allowed to polymerize at 37° C.
# [2] = tested on: CD8+ and CD4+ T lymphocytes (murine splenocytes); test: T lymphocyte proliferation by CFSE dilution; assay type: cell-based; settings: anti-CD3, anti-CD28, IL-2 stimulated, 3 days
# Description: Murine splenocytes were stimulated with anti-CD3, anti-CD28 and murine recombinant IL-2 in addition to the indicated SU11652 doses for 3 days. Prior to stimulation, cells were stained with carboxyfluorescein succinimidyl ester (CFSE) to track cell division. […] Additionally, cells were treated with phorbol 12-myristate 13-acetate (PMA)/ionomycin/monensin for six hours to detect the intracellular cytokines 72 h post-stimulation. […] CFSE dilution and the intracellular cytokines were detected by flow cytometry. Error bars represent SEM for n=3 mice.
# Murine splenocytes were stimulated with anti-CD3, anti-CD28, and murine recombinant IL-2 in addition to the indicated SU11652 doses for 3 days. Prior to stimulation, cells were stained with CFSE to track cell division. […] Additionally, cells were treated with PMA/lonomycin/Monensin for six hours to detect intracellular cytokines. […] CFSE dilution and intracellular cytokines were detected by flow cytometry. Error bars represent SEM for n=3 mice.
compound,measurement,setting,value
"CCN(CC)CCNC(=O)c1c(C)[nH]c(/C=C2\C(=O)Nc3ccc(Cl)cc32)c1C [SU11652, 5-[(Z)-(5-chloro-2-oxo-1,2-dihydro-3H-indol-3-ylidene)methyl]-N-[2-(diethylamino)ethyl]-2,4-dimethyl-1H-pyrrole-3-carboxamide]",tumor growth rate between day 7 and 11 (mean tumor burden),B16-F10 cells (BRAF-WT); 10 mg/kg orally,3.8 times
same,tumor growth rate between day 7 and 11 (mean tumor burden),B16-F10 cells (BRAF-WT); 40 mg/kg orally,2.35 times
same,tumor control (dose dependence),"B16-F10 cells (BRAF-WT); 10-20-40 mg/kg orally, tumor burden to day 20",dose-dependent improvement in tumor control; also recorded: Higher doses of SU11652 lead to more efficient tumor control; also recorded: increasingly effective control of tumor volume
same,splenocyte viability / cell death,murine splenocytes,splenocytes remained viable; also recorded: does not kill normal immune cells
same,cytotoxic activity under 2D conditions,A375 cells,does not show cytotoxic activity; also recorded: does not match that observed in 3D and in vivo
same,cytotoxic effect (viability ratio dose response),[1],strong cytotoxic effect; also recorded: broadly cytotoxic to melanoma cells
same,cell division of CD8+ and CD4+ T lymphocytes,[2],did not impair cell division
